Consider five compounds from PMC10175918 (Communications Biology, 2023).

Holding throughout (test): TGFα-shedding assay-based GPCR screening with chimeric Gα subunit proteins
Type in all cases: cell-based

Assay [1] has as its target T1, 348 GPCRs (Homo sapiens, UniProt P60893).
T1 construct: expressed in transfected cells; host or cells: HEK293A
The conditions noted are these: 10µM, Favipiravir 100μM.

Assay [2] has as its target T2, 348 GPCRs (Homo sapiens, UniProt Q03431).
T2 sequence (Q03431 27-593): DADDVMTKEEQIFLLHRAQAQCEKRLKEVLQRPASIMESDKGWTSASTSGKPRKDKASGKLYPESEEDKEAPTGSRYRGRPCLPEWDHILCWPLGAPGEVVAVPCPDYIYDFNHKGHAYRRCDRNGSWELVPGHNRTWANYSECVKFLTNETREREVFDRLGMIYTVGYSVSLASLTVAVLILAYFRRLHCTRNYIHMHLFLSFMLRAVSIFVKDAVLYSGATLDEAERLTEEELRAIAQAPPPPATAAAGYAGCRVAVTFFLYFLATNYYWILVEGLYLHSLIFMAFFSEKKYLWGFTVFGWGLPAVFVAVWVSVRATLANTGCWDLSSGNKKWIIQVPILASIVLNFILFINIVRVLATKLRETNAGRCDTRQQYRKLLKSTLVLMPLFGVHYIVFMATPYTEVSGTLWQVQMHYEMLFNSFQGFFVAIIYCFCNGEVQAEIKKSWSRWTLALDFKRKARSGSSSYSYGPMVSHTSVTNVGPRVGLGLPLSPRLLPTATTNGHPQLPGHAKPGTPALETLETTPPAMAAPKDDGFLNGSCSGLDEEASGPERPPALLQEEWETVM
The settings on record: 10µM, Favipiravir 100μM.

The target of assay [3] is 348 GPCRs (Homo sapiens, UniProt P41595). The settings on record: 10µM, Favipiravir 100μM.
In assay [4] the target is T3, 348 GPCRs (Homo sapiens, UniProt P51810).
T3 construct: expressed in transfected cells; host or cells: HEK293A
The settings on record: 10µM, Favipiravir 100μM.

The target in assay [5] is T4, 348 GPCRs (Homo sapiens, UniProt Q9BXC0).
T4 construct: expressed in transfected cells; host or cells: HEK293A
The conditions noted are these: 10µM, Favipiravir 100μM.

Assay [6] has as its target T5, 348 GPCRs (Homo sapiens, UniProt O95838).
T5 construct: expressed in transfected cells; host or cells: HEK293A
T5 sequence (O95838 1-553): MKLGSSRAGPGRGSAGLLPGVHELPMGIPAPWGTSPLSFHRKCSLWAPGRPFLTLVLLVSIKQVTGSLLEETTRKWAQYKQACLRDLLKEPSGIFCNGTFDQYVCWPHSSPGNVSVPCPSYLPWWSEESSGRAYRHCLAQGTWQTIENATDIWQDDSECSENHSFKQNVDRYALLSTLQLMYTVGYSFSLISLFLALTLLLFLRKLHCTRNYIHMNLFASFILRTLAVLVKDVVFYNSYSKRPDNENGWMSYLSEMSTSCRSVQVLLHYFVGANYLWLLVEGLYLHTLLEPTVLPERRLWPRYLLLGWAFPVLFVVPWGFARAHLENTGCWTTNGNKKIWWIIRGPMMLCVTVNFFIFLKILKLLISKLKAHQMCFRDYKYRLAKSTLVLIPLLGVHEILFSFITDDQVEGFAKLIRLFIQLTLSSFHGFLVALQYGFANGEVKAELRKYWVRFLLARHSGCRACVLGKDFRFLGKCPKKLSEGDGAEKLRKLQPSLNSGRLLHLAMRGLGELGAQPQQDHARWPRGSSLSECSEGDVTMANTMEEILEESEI
The conditions noted are these: 10µM, Favipiravir 100μM.

The target of assay [7] is T6, 348 GPCRs (Homo sapiens, UniProt Q5UAW9).
T6 construct: expressed in transfected cells; host or cells: HEK293A
The conditions noted are these: 10µM, Favipiravir 100μM.

In assay [8] the target is T7, 348 GPCRs (Homo sapiens, UniProt Q92633).
T7 construct: expressed in transfected cells; host or cells: HEK293A
The settings on record: 10µM, Favipiravir 100μM.

Assay [9] concerns the target T8, 348 GPCRs (Homo sapiens, UniProt Q9NYW2).
T8 construct: expressed in transfected cells; host or cells: HEK293A
T8 sequence (Q9NYW2 1-309): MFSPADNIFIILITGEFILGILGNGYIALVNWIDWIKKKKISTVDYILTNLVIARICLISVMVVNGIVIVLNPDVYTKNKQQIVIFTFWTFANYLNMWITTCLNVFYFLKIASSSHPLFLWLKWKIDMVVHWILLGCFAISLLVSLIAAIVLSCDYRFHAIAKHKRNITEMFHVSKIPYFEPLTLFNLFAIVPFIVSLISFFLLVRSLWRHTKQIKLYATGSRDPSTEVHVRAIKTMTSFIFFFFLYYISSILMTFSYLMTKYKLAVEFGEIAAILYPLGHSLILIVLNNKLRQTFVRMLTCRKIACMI
The conditions noted are these: 10µM, Favipiravir 100μM.

Assay [10] addresses T9, 348 GPCRs (Homo sapiens, UniProt Q9NS67).
T9 construct: expressed in transfected cells; host or cells: HEK293A
The settings on record: 10µM, Favipiravir 100μM.

In assay [11] the target is T10, 348 GPCRs (Homo sapiens, UniProt Q9Y5Y3).
T10 construct: expressed in transfected cells; host or cells: HEK293A

Where [12] appears, read: GPR85 (G protein-coupled receptor 85), read-out: % GPCR activation compared to TPA.
[13] abbreviates: PTH1R (parathyroid hormone 1 receptor), read-out: % GPCR activation compared to TPA.
Where [14] appears, read: HTR2B (5-hydroxytryptamine (serotonin) receptor 2B), read-out: % GPCR activation compared to TPA.
Where [15] appears, read: GPR143 (G Protein-Coupled Receptor 143), read-out: % GPCR activation compared to TPA.
The mark [16] stands for this setting: GPR81 (hydroxycarboxylic acid receptor 1), read-out: % GPCR activation compared to TPA.
The mark [17] stands for this setting: GLP2R (glucagon like peptide 2 receptor), read-out: % GPCR activation compared to TPA.
[18] abbreviates: GPR157 (G Protein-Coupled Receptor 157), read-out: % GPCR activation compared to TPA.
The mark [19] stands for this setting: LPAR1 (lysophosphatidic acid receptor 1), read-out: % GPCR activation compared to TPA.
[20] abbreviates: TAS2R8 (taste receptor, type 2, member 8), read-out: % GPCR activation compared to TPA.
Where [21] appears, read: GPR27 (G Protein-Coupled Receptor 27), read-out: % GPCR activation compared to TPA.
Where [22] appears, read: GPCR GPR45 (G Protein-Coupled Receptor 45), read-out: % GPCR activation compared to TPA.
Setting [23] is: read-out: % GPCR activation compared to TPA, GPR85 (G protein-coupled receptor 85).
Where [24] appears, read: read-out: % GPCR activation compared to TPA, PTH1R (parathyroid hormone 1 receptor).
[25] abbreviates: read-out: % GPCR activation compared to TPA, HTR2B (5-hydroxytryptamine (serotonin) receptor 2B).
Setting [26] is: read-out: % GPCR activation compared to TPA, GPR143 (G Protein-Coupled Receptor 143).
The mark [27] stands for this setting: read-out: % GPCR activation compared to TPA, GPR81 (hydroxycarboxylic acid receptor 1).
Where [28] appears, read: read-out: % GPCR activation compared to TPA, GLP2R (glucagon like peptide 2 receptor).
Setting [29] is: read-out: % GPCR activation compared to TPA, GPR157 (G Protein-Coupled Receptor 157).
[30] abbreviates: read-out: % GPCR activation compared to TPA, LPAR1 (lysophosphatidic acid receptor 1).
[31] abbreviates: read-out: % GPCR activation compared to TPA, TAS2R8 (taste receptor, type 2, member 8).
The mark [32] stands for this setting: read-out: % GPCR activation compared to TPA, GPR27 (G Protein-Coupled Receptor 27).
The mark [33] stands for this setting: read-out: % GPCR activation compared to TPA, GPCR GPR45 (G Protein-Coupled Receptor 45).

Read-outs that look alike come from different tables or passages of the source.

T4 sequence (Q9BXC0 whole entry): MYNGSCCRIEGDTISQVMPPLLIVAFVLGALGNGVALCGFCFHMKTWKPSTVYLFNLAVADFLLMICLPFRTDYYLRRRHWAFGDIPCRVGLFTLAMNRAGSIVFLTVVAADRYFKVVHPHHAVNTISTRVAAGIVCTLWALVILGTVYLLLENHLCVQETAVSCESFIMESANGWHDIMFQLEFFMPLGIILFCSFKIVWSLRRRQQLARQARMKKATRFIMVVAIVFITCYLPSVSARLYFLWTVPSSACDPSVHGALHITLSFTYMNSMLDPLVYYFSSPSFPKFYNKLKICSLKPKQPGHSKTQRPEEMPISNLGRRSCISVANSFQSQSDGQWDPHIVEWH
T1 sequence (P60893 whole entry): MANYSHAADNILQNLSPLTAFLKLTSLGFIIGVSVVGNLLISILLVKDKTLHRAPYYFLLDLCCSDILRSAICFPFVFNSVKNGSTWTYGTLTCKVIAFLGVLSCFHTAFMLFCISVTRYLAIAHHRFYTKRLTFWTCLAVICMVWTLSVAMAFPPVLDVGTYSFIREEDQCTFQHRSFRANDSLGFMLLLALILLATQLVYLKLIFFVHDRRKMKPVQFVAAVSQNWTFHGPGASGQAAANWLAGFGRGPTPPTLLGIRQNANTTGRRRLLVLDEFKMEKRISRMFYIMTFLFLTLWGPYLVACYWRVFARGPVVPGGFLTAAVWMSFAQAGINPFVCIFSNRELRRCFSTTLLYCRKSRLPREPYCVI
T6 sequence (Q5UAW9 whole entry): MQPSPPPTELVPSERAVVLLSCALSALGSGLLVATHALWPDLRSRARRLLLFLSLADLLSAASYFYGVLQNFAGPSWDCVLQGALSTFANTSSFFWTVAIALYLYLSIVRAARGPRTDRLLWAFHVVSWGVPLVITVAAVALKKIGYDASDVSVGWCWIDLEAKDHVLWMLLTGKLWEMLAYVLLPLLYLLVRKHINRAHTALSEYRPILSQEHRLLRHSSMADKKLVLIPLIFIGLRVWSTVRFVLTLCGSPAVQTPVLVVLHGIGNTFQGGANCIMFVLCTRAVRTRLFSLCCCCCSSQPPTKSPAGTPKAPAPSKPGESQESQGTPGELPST
T10 sequence (Q9Y5Y3 whole entry): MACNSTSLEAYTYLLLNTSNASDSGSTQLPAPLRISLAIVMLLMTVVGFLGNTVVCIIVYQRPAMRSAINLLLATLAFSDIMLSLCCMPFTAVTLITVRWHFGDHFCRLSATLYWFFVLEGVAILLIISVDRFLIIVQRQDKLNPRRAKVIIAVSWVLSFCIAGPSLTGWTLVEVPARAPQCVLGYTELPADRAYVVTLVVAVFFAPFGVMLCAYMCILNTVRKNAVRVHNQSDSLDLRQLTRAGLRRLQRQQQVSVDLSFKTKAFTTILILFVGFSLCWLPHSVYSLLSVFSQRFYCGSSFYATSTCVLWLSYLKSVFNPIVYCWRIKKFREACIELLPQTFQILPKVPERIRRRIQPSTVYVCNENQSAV
T3 sequence (P51810 whole entry): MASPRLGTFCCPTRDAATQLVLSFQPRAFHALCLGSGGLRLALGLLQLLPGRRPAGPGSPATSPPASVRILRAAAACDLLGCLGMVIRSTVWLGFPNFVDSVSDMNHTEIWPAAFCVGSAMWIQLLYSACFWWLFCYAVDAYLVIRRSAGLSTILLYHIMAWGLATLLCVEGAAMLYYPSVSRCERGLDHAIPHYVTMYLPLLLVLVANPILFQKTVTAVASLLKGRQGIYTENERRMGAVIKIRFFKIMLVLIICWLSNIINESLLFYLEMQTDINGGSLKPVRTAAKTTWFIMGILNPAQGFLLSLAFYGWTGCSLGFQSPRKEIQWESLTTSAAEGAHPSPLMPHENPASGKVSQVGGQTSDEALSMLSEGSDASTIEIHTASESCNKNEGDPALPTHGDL
Chain of 348 GPCRs (Homo sapiens, UniProt P41595) (P41595 whole entry): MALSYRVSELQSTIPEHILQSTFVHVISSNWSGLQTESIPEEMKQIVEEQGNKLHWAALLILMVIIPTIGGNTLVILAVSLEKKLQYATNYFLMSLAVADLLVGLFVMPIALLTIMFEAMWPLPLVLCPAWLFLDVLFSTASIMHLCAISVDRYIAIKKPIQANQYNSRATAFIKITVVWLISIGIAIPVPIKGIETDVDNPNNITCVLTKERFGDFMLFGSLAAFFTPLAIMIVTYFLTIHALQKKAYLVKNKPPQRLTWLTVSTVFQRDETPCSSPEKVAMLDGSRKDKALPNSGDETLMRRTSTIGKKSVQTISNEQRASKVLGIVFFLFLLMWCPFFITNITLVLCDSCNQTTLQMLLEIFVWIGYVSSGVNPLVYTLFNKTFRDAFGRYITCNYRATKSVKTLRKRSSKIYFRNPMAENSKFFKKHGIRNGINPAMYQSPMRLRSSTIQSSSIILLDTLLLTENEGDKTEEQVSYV
T9 sequence (Q9NS67 whole entry): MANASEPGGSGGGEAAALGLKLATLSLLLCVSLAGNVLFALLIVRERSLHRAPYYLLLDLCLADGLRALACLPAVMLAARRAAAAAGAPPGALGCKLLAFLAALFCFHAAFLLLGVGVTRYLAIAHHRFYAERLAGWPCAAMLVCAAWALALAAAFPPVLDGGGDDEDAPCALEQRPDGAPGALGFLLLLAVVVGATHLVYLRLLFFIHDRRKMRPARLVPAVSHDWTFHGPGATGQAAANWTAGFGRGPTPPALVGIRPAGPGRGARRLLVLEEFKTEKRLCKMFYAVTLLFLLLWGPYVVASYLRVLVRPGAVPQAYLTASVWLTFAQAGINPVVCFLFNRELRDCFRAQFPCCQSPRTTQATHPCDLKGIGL
T7 sequence (Q92633 whole entry): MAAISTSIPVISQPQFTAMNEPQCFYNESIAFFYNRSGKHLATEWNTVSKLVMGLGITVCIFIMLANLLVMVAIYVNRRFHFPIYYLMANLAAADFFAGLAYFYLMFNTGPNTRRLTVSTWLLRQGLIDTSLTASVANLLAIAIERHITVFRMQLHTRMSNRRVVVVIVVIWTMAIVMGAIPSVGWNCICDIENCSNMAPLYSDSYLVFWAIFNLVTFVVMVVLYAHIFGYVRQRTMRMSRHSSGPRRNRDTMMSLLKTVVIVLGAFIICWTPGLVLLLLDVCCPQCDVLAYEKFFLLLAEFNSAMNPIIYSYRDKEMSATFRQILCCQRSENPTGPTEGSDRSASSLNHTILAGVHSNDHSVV

As for `CC(C)C(=O)OC[C@H]1O[C@@H](n2ccc(NO)nc2=O)[C@H](O)[C@@H]1O` [molnupiravir], the activation at 100 µM in assay [1] (setting [12]) was -2.83%; in [2] (setting [13]), -0.633%; in assay [3] (setting [14]) it was -1.16%; in assay [4] (setting [15]), -2.51%; in assay [5] (setting [16]), 0.933%; in assay [10] (setting [21]) it was -0.612%. For the same compound, the activation at 10 µM is 0.598% in assay [6] (setting [17]); -0.773% in [7] (setting [18]); -1.42% in assay [8] (setting [19]); -0.417% in [9] (setting [20]); 0.592% in assay [11] (setting [22]).
Regarding `CC(C)OC(=O)[C@H](C)N[P@](=O)(OC[C@H]1O[C@@H](n2ccc(=O)[nH]c2=O)[C@](C)(F)[C@@H]1O)Oc1ccccc1` [sofosbuvir], the activation at 100 µM in assay [1] (setting [23]) is -3.71%; in assay [2] (setting [24]), 1.23%; in assay [3] (setting [25]), -0.398%; in [4] (setting [26]), -1.1%; in [5] (setting [27]), -7.92%; in assay [10] (setting [32]) it was 1.94%. The activation at 10 µM in [6] (setting [28]) is -0.662%; in [7] (setting [29]) it was 3.51%; in assay [8] (setting [30]), 3.41%; in assay [9] (setting [31]), 0.759%; in assay [11] (setting [33]) it was 0.955%.
Turning to `N#C[C@@]1(c2ccc3c(N)ncnn23)O[C@H](CO)[C@@H](O)[C@H]1O` [GS441524], the activation at 100 µM was 2.04% in assay [1] (setting [12]); -0.479% in [2] (setting [13]); 0.0796% in assay [3] (setting [14]); -1.65% in assay [4] (setting [15]); 1.05% in assay [5] (setting [16]); 1.65% in [10] (setting [21]). Besides, the activation at 10 µM in [6] (setting [17]) is 1.04%; in [7] (setting [18]), -1.23%; in assay [8] (setting [19]), 1.19%; in assay [9] (setting [20]), 0.391%; in assay [11] (setting [22]) it was -0.0256%.
On to `NC(=O)c1nc(F)cnc1O` [favipiravir, 6-fluoro-3-hydroxy-2-pyrazinecarboxamide], for which the activation at 100 µM in assay [1] (setting [12]) is 3.44%; in assay [2] (setting [13]) it was -0.775%; in assay [3] (setting [14]), 0.187%; in [4] (setting [15]), -1.86%; in assay [5] (setting [16]), 0.102%; in assay [10] (setting [21]), -0.296%. For the same compound, the activation at 100 µM in assay [11] (GPCR GPR45 (G Protein-Coupled Receptor 45), 100μM, read-out: % GPCR activation compared to TPA) is -0.546%. Besides, the activation at 10 µM in assay [6] (setting [17]) was 2.97%; in assay [7] (setting [18]) it was -0.889%; in [8] (setting [19]), 0.687%; in assay [9] (setting [20]), -0.549%.
`CCC(CC)COC(=O)[C@H](C)N[P@](=O)(OC[C@H]1O[C@@](C#N)(c2ccc3c(N)ncnn23)[C@H](O)[C@@H]1O)Oc1ccccc1` [remdesivir]: the activation at 100 µM in [1] (setting [23]) is 6.64%; in assay [2] (setting [24]), 0.414%; in assay [3] (setting [25]), -4.14%; in [4] (setting [26]), -0.638%; in assay [5] (setting [27]) it was 2.29%; in assay [10] (setting [32]), 0.0845%. Further, the activation at 10 µM in assay [6] (setting [28]) was 1.76%; in assay [7] (setting [29]), 1.04%; in [8] (setting [30]), 0.719%; in assay [9] (setting [31]), 0.189%; in assay [11] (setting [33]), 0.315%.
